Data published in US9527867B2, “Antibacterial biaromatic derivatives” (Actelion Pharmaceuticals Ltd., priority 2013, dated 2016).
In brackets after ≈: the same amount, converted by molar mass.

Assays:
Test in all cases: Bacterial growth minimal inhibitory concentration (broth microdilution, CLSI M7-A7)
Type in all cases: cell-based
[1] = test system: Staphylococcus aureus A798; details: Staphylococcus aureus, A798, cation-adjusted Mueller-Hinton Broth, multiply-resistant strain (in particular quinolone-resistant), read-out: MIC for S. aureus A798
Method in brief: (§1)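 Read-out is the minimal inhibitory concentration in mg/L, obtained by microdilution in cation-adjusted Mueller-Hinton broth following CLSI M7-A7. Quinolone resistance is present in A798 and T6474, which are multiply resistant, but absent in A894 and in methicillin-sensitive ATCC29213.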

[2] = test system: Moraxella catarrhalis A894; details: Moraxella catarrhalis, A894, cation-adjusted Mueller-Hinton Broth, quinolone-sensitive strain
Method in brief: as §1

[3] = test system: Staphylococcus aureus ATCC29213; details: Staphylococcus aureus, ATCC29213, cation-adjusted Mueller-Hinton Broth, methicillin-sensitive and quinolone-sensitive strain, read-out: MIC for S. aureus ATCC29213
Method in brief: as §1

[4] = test system: Enterococcus faecium A949; details: Enterococcus faecium, A949, cation-adjusted Mueller-Hinton Broth, multiply-resistant strain (in particular quinolone-resistant), read-out: MIC for E. faecium A949
Method in brief: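 Broth microdilution after CLSI M7-A7 in cation-adjusted Mueller-Hinton medium gave MIC values in mg/L.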

[5] = test system: Acinetobacter baumannii T6474; details: Acinetobacter baumannii, T6474, cation-adjusted Mueller-Hinton Broth, multiply-resistant strain (in particular quinolone-resistant)
Method in brief: as §1

Compound | MIC [1] | MIC [2] | MIC [3] | MIC [4] | MIC [5]
COc1ccc(C#N)c(-c2cccc(CNCCc3nn(-c4ccc5c(n4)NC(=O)CO5)c(=O)o3)c2)c1 [Example 52, 5-methoxy-3′-({2-[5-oxo-4-(3-oxo-3,4-dihydro-2H-pyrido[3,2-b][1,4]oxazin-6-yl)-4,5-dihydro-[1,3,4]oxadiazol-2-yl]-ethylamino}-methyl)-biphenyl-2-carbonitrile] | 1 µg/mL (≈ 2.01 µM) | 0.031 µg/mL (≈ 0.0622 µM) | 0.5 µg/mL (≈ 1 µM) | 4 µg/mL (≈ 8.02 µM) | 2 µg/mL (≈ 4.01 µM)
COc1ccc(OC)c(-c2cccc(CNCC[C@H]3CN(c4ccc5c(n4)NC(=O)CO5)C(=O)O3)c2)c1 [Example 64, 6-((S)-5-{2-[(2′,5′-dimethoxy-biphenyl-3-ylmethyl)-amino]-ethyl}-2-oxo-oxazolidin-3-yl)-4H-pyrido[3,2-b][1,4]oxazin-3-one] | 2 µg/mL (≈ 3.96 µM) | ≤ 0.063 µg/mL | 1 µg/mL (≈ 1.98 µM) | 16 µg/mL (≈ 31.7 µM) | 16 µg/mL (≈ 31.7 µM)
N#CCOc1cccc(-c2cccc(CNCC[C@H]3CN(c4ccc5c(n4)NC(=O)CO5)C(=O)O3)c2)c1 [Example 65, [3′-({2-[(S)-2-oxo-3-(3-oxo-3,4-dihydro-2H-pyrido[3,2-b][1,4]oxazin-6-yl)-oxazolidin-5-yl]-ethylamino}-methyl)-biphenyl-3-yloxy]-acetonitrile] | 1 µg/mL (≈ 2 µM) | ≤ 0.063 µg/mL | 1 µg/mL (≈ 2 µM) | 16 µg/mL (≈ 32 µM) | 2 µg/mL (≈ 4 µM)
N#Cc1cccc(-c2cccc(CNCCc3nn(-c4ccc5c(n4)NC(=O)CO5)c(=O)o3)c2)c1 [Example 56, 3′-({2-[5-oxo-4-(3-oxo-3,4-dihydro-2H-pyrido[3,2-b][1,4]oxazin-6-yl)-4,5-dihydro-[1,3,4]oxadiazol-2-yl]-ethylamino}-methyl)-biphenyl-3-carbonitrile] | 2 µg/mL (≈ 4.27 µM) | ≤ 0.016 µg/mL | 0.5 µg/mL (≈ 1.07 µM) | 4 µg/mL (≈ 8.54 µM) | 1 µg/mL (≈ 2.13 µM)
COc1cccc(-c2cccc(CNCCc3nn(-c4ccc5c(n4)NC(=O)CO5)c(=O)o3)c2)n1 [Example 51, 6-(5-{2-[3-(6-methoxy-pyridin-2-yl)-benzylamino]-ethyl}-2-oxo-[1,3,4]oxadiazol-3-yl)-4H-pyrido[3,2-b][1,4]oxazin-3-one] | 1 µg/mL (≈ 2.11 µM) | ≤ 0.016 µg/mL | 0.5 µg/mL (≈ 1.05 µM) | 2 µg/mL (≈ 4.22 µM) | 0.5 µg/mL (≈ 1.05 µM)
COc1cc(-c2cccc(CNCC[C@H]3CN(c4ccc5c(n4)NC(=O)CO5)C(=O)O3)c2)cnn1 [Example 59, 6-((S)-5-{2-[3-(6-methoxy-pyridazin-4-yl)-benzylamino]-ethyl}-2-oxo-oxazolidin-3-yl)-4H-pyrido[3,2-b][1,4]oxazin-3-one] | 4 µg/mL (≈ 8.39 µM) | 0.125 µg/mL (≈ 0.262 µM) | 2 µg/mL (≈ 4.2 µM) | > 8 µg/mL | 2 µg/mL (≈ 4.2 µM)
N#Cc1cnnc(-c2cccc(CNCC[C@H]3CN(c4ccc5c(n4)NC(=O)CO5)C(=O)O3)c2)c1 [Example 80, 6-[3-({2-[(S)-2-oxo-3-(3-oxo-3,4-dihydro-2H-pyrido[3,2-b][1,4]oxazin-6-yl)-oxazolidin-5-yl]-ethylamino}-methyl)-phenyl]-pyridazine-4-carbonitrile] | 0.5 µg/mL (≈ 1.06 µM) | 0.031 µg/mL (≈ 0.0658 µM) | 0.5 µg/mL (≈ 1.06 µM) | > 8 µg/mL | 0.25 µg/mL (≈ 0.53 µM)
COc1ccc(-c2cccc(CNCC[C@@H]3CN(c4ccc5c(c4)NC(=O)CS5)C(=O)O3)c2)cn1 [Example 16, 6-((R)-5-{2-[3-(6-methoxy-pyridin-3-yl)-benzylamino]-ethyl}-2-oxo-oxazolidin-3-yl)-4H-benzo[1,4]thiazin-3-one] | 0.5 µg/mL (≈ 1.02 µM) | 0.063 µg/mL (≈ 0.128 µM) | 0.5 µg/mL (≈ 1.02 µM) | 2 µg/mL (≈ 4.08 µM) | 1 µg/mL (≈ 2.04 µM)
COc1cc(-c2cccc(CNCC[C@H]3CN(c4ccc5c(n4)NC(=O)CO5)C(=O)O3)c2)ccn1 [Example 55, 6-((S)-5-{2-[3-(2-methoxy-pyridin-4-yl)-benzylamino]-ethyl}-2-oxo-oxazolidin-3-yl)-4H-pyrido[3,2-b][1,4]oxazin-3-one] | 2 µg/mL (≈ 4.21 µM) | 0.031 µg/mL (≈ 0.0652 µM) | 2 µg/mL (≈ 4.21 µM) | > 8 µg/mL | 1 µg/mL (≈ 2.1 µM)
COCCOc1cccc(-c2cccc(CNCC[C@H]3CN(c4ccc5c(n4)NC(=O)CO5)C(=O)O3)c2)c1 [Example 54, 6-[(S)-5-(2-{[3′-(2-methoxy-ethoxy)-biphenyl-3-ylmethyl]-amino}-ethyl)-2-oxo-oxazolidin-3-yl]-4H-pyrido[3,2-b][1,4]oxazin-3-one] | 2 µg/mL (≈ 3.86 µM) | 0.125 µg/mL (≈ 0.241 µM) | 2 µg/mL (≈ 3.86 µM) | 16 µg/mL (≈ 30.9 µM) | 8 µg/mL (≈ 15.4 µM)

The remaining lines, values ahead:

MIC [1] | MIC [2] | MIC [3] | MIC [4] | MIC [5] | Compound
0.25 µg/mL (≈ 0.515 µM) | 0.031 µg/mL (≈ 0.0638 µM) | 0.25 µg/mL (≈ 0.515 µM) | 4 µg/mL (≈ 8.24 µM) | 0.25 µg/mL (≈ 0.515 µM) | N#Cc1cccc(-c2cccc(CNCC[C@@H]3CN(c4ccc5c(c4)NC(=O)CS5)C(=O)O3)c2)n1 [Example 18, 6-[3-({2-[(R)-2-oxo-3-(3-oxo-3,4-dihydro-2H-benzo[1,4]thiazin-6-yl)-oxazolidin-5-yl]-ethylamino}-methyl)-phenyl]-pyridine-2-carbonitrile]
≤ 0.016 µg/mL | ≤ 0.016 µg/mL | ≤ 0.016 µg/mL | 0.125 µg/mL (≈ 0.249 µM) | 0.063 µg/mL (≈ 0.126 µM) | N#Cc1ccc(O)c(-c2cc(CNCC[C@@H]3CN(c4ccc5c(c4)NC(=O)CS5)C(=O)O3)ccn2)c1 [Example 38, 4-hydroxy-3-[4-({2-[(R)-2-oxo-3-(3-oxo-3,4-dihydro-2H-benzo[1,4]thiazin-6-yl)-oxazolidin-5-yl]-ethylamino}-methyl)-pyridin-2-yl]-benzonitrile]
≤ 0.016 µg/mL | ≤ 0.016 µg/mL | ≤ 0.016 µg/mL | 0.25 µg/mL (≈ 0.509 µM) | 0.063 µg/mL (≈ 0.128 µM) | COc1cccc(-c2cccc(CNCC[C@H]3CN(c4ccc5c(n4)NC(=O)CO5)C(=O)O3)c2O)n1 [Example 93, 6-((S)-5-{2-[2-hydroxy-3-(6-methoxy-pyridin-2-yl)-benzylamino]-ethyl}-2-oxo-oxazolidin-3-yl)-4H-pyrido[3,2-b][1,4]oxazin-3-one]
0.5 µg/mL (≈ 1.07 µM) | ≤ 0.016 µg/mL | 0.5 µg/mL (≈ 1.07 µM) | 4 µg/mL (≈ 8.54 µM) | 0.5 µg/mL (≈ 1.07 µM) | N#Cc1cccc(-c2cccc(CNCC[C@H]3CN(c4ccc5c(c4)NC(=O)CO5)C(=O)O3)c2)c1 [Example 82, 3′-({2-[(S)-2-oxo-3-(3-oxo-3,4-dihydro-2H-benzo[1,4]oxazin-6-yl)-oxazolidin-5-yl]-ethylamino}-methyl)-biphenyl-3-carbonitrile]
0.125 µg/mL (≈ 0.25 µM) | ≤ 0.016 µg/mL | 0.125 µg/mL (≈ 0.25 µM) | 2 µg/mL (≈ 4 µM) | 0.5 µg/mL (≈ 1 µM) | COc1ccc(C#N)c(-c2cccc(CNCC[C@@H]3CN(c4ccc5c(n4)NC(=O)CO5)C(=O)O3)c2)c1 [Example 32, 5-methoxy-3′-({2-[(R)-2-oxo-3-(3-oxo-3,4-dihydro-2H-pyrido[3,2-b][1,4]oxazin-6-yl)-oxazolidin-5-yl]-ethylamino}-methyl)-biphenyl-2-carbonitrile]
0.125 µg/mL (≈ 0.254 µM) | ≤ 0.016 µg/mL | 0.125 µg/mL (≈ 0.254 µM) | 2 µg/mL (≈ 4.07 µM) | 1 µg/mL (≈ 2.03 µM) | COc1ccnc(-c2cccc(CNCC[C@H]3CN(c4ccc5c(n4)NC(=O)CO5)C(=O)O3)c2O)c1 [Example 106, 6-((S)-5-{2-[2-hydroxy-3-(4-methoxy-pyridin-2-yl)-benzylamino]-ethyl}-2-oxo-oxazolidin-3-yl)-4H-pyrido[3,2-b][1,4]oxazin-3-one]
0.063 µg/mL (≈ 0.128 µM) | ≤ 0.016 µg/mL | 0.063 µg/mL (≈ 0.128 µM) | 1 µg/mL (≈ 2.04 µM) | 0.125 µg/mL (≈ 0.255 µM) | COc1cncc(-c2cccc(CNCC[C@@H]3CN(c4ccc5c(c4)NC(=O)CS5)C(=O)O3)c2)c1 [Example 13, 6-((R)-5-{2-[3-(5-methoxy-pyridin-3-yl)-benzylamino]-ethyl}-2-oxo-oxazolidin-3-yl)-4H-benzo[1,4]thiazin-3-one]
0.063 µg/mL (≈ 0.122 µM) | ≤ 0.016 µg/mL | 0.063 µg/mL (≈ 0.122 µM) | 1 µg/mL (≈ 1.94 µM) | 0.25 µg/mL (≈ 0.486 µM) | COc1ccc(C#N)c(-c2cccc(CNCC[C@@H]3CN(c4ccc5c(c4)NC(=O)CS5)C(=O)O3)c2)c1 [Example 8, 5-methoxy-3′-({2-[(R)-2-oxo-3-(3-oxo-3,4-dihydro-2H-benzo[1,4]thiazin-6-yl)-oxazolidin-5-yl]-ethylamino}-methyl)-biphenyl-2-carbonitrile]
0.5 µg/mL (≈ 1.02 µM) | 0.063 µg/mL (≈ 0.129 µM) | 1 µg/mL (≈ 2.05 µM) | 8 µg/mL (≈ 16.4 µM) | 2 µg/mL (≈ 4.09 µM) | CCOc1cccc(-c2cccc(CNCC[C@H]3CN(c4ccc5c(n4)NC(=O)CO5)C(=O)O3)c2)c1 [Example 70, 6-((S)-5-{2-[(3′-ethoxy-biphenyl-3-ylmethyl)-amino]-ethyl}-2-oxo-oxazolidin-3-yl)-4H-pyrido[3,2-b][1,4]oxazin-3-one]
0.031 µg/mL (≈ 0.0631 µM) | ≤ 0.016 µg/mL | 0.031 µg/mL (≈ 0.0631 µM) | 1 µg/mL (≈ 2.03 µM) | 0.25 µg/mL (≈ 0.509 µM) | COc1cncc(-c2cccc(CNCC[C@@H]3CN(c4ccc5c(c4)NC(=O)CS5)C(=O)O3)c2)n1 [Example 25, 6-((R)-5-{2-[3-(6-methoxy-pyrazin-2-yl)-benzylamino]-ethyl}-2-oxo-oxazolidin-3-yl)-4H-benzo[1,4]thiazin-3-one]
≤ 0.016 µg/mL | ≤ 0.016 µg/mL | 0.031 µg/mL (≈ 0.0637 µM) | 0.5 µg/mL (≈ 1.03 µM) | 0.063 µg/mL (≈ 0.129 µM) | N#Cc1cccc(-c2cccc(CNCC[C@H]3CN(c4ccc5c(n4)NC(=O)CO5)C(=O)O3)c2O)n1 [Example 92, 6-[2-hydroxy-3-({2-[(S)-2-oxo-3-(3-oxo-3,4-dihydro-2H-pyrido[3,2-b][1,4]oxazin-6-yl)-oxazolidin-5-yl]-ethylamino}-methyl)-phenyl]-pyridine-2-carbonitrile]
